In patent US9682940B2, “Indazole derivatives useful as CB-1 inverse agonists” (Janssen Pharmaceutica NV, priority 2015, dated 2017):

What was measured:
[1] = target: Human CB2R (Cannabanoid receptor 2) (Homo sapiens (Human), UniProt P34972); assay: CB-2 in vitro cAMP (HTRF) assay in HEK-293 cells; type: cell-based; settings: HEK-293 cells stably transfected with human CB2R, 250 nM Forskolin, mean where tested more than once, read-out: CB-2 (HEK_cAMP) EC50
Procedure, shortened: (§1)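 HEK-293 cells stably expressing human CB1 or CB2 plated overnight, then tested in HBSS/5 mM HEPES/0.1% BSA with 0.5 mM IBMX and forskolin (1.5 μM working dilution). Intracellular cAMP quantified by competitive HTRF immunoassay (d2-cAMP, cryptate anti-cAMP) against a cAMP standard curve; compounds as 1/3 serial dilutions from 10 mM DMSO stocks.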

[2] = target: Human CB1R (Cannabanoid receptor 1) (Homo sapiens (Human), UniProt P21554); assay: CB-1 in vitro cAMP (HTRF) assay in HEK-293 cells; type: cell-based; settings: HEK-293 cells stably transfected with human CB1R, 250 nM Forskolin, mean where tested more than once, read-out: CB-1 (HEK_cAMP) EC50
Procedure, shortened: as §1

Human CB1R (Cannabanoid receptor 1), sequence (P21554 whole entry): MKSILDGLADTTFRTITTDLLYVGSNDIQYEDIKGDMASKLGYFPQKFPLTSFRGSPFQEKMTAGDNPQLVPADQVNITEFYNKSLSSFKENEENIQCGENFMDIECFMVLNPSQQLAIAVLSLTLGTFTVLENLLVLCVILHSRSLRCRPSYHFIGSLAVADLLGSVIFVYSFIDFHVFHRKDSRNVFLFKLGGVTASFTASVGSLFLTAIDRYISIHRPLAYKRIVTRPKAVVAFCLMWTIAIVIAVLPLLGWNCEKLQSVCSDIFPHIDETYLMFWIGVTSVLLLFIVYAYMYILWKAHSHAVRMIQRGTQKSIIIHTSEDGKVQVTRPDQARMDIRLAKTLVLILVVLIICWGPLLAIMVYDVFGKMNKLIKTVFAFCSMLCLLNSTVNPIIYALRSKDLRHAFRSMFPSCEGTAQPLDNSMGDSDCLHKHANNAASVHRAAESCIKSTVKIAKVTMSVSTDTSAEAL
Human CB2R (Cannabanoid receptor 2), sequence (P34972 whole entry): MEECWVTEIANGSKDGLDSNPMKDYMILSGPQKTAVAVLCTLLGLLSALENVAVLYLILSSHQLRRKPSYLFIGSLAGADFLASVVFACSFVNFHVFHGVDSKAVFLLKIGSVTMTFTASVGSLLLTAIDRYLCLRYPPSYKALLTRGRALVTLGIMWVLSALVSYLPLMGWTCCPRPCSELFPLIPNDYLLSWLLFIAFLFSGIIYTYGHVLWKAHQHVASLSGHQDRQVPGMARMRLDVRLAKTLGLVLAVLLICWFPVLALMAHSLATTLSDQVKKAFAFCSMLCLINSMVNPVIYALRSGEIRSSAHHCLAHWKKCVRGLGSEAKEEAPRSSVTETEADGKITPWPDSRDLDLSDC

Row | SMILES | EC50 [1] [µM] | EC50 [2] [µM]
1 | NC(=O)c1cccc(S(=O)(=O)N2CCC(c3c4cc(C(c5ccc(Cl)cc5)c5ccc(Cl)cc5)ccc4nn3C3CC3)CC2)c1 [Compound 140, 3-(4-(5-(bis(4-chlorophenyl)methyl)-2-cyclopropyl-2H-indazol-3-yl)piperidin-1-ylsulfonyl)benzamide] | > 10 | 0.011
2 | NC(=O)c1ccccc1C(=O)N1CCC(c2c3cc(C(c4ccc(Cl)cc4)c4ccc(Cl)cc4)ccc3nn2C2CC2)CC1 [Compound 141] | > 10 | 6.12
3 | O=C(c1nnn[nH]1)N1CCC(c2n[nH]c3ccc(C(c4ccc(Cl)cc4)c4ccc(Cl)cc4)cc23)CC1 [Compound 143] | > 10 | 1.01
4 | O=C(c1nnc[nH]1)N1CCC(c2n[nH]c3ccc(C(c4ccc(Cl)cc4)c4ccc(Cl)cc4)cc23)CC1 [Compound 144] | > 10 | 5.48
5 | O=C(c1c[nH]nn1)N1CCC(c2n[nH]c3ccc(C(c4ccc(Cl)cc4)c4ccc(Cl)cc4)cc23)CC1 [Compound 145] | > 10 | 0.049
6 | COc1cc(S(=O)(=O)N2CCC(c3c4cc(C(c5ccc(Cl)cc5)c5ccc(Cl)cc5)ccc4nn3C3CC3)CC2)ccc1C(N)=O [Compound 146, 4-(4-(5-(bis(4-chlorophenyl)methyl)-2-cyclopropyl-2H-indazol-3-yl)piperidin-1-ylsulfonyl)-2-methoxybenzamide] | > 10 | 0.007
7 | CNC(=O)c1ccc(S(=O)(=O)N2CCC(c3c4cc(C(c5ccc(Cl)cc5)c5ccc(Cl)cc5)ccc4nn3C3CC3)CC2)cc1OC [Compound 147, 4-(4-(5-(bis(4-chlorophenyl)methyl)-2-cyclopropyl-2H-indazol-3-yl)piperidin-1-ylsulfonyl)-2-methoxy-N-methylbenzamide] | > 10 | 0.023
8 | O=S(=O)(c1ccccc1O)N1CCC(c2c3cc(C(c4ccc(Cl)cc4)c4ccc(Cl)cc4)ccc3nn2C2CC2)CC1 [Compound 149, 2-(4-(5-(bis(4-chlorophenyl)methyl)-2-cyclopropyl-2H-indazol-3-yl)piperidin-1-ylsulfonyl)phenol] | > 10 | 0.007
9 | COc1cccc(S(=O)(=O)N2CCC(c3c4cc(C(c5ccc(Cl)cc5)c5ccc(Cl)cc5)ccc4nn3C3CC3)CC2)c1 [Compound 150, 5-(bis(4-chlorophenyl)methyl)-2-cyclopropyl-3-(1-(3-methoxyphenylsulfonyl)piperidin-4-yl)-2H-indazole] | > 10 | 0.007
10 | COc1ccc(S(=O)(=O)N2CCC(c3c4cc(C(c5ccc(Cl)cc5)c5ccc(Cl)cc5)ccc4nn3C3CC3)CC2)cc1 [Compound 152, 5-(bis(4-chlorophenyl)methyl)-2-cyclopropyl-3-(1-(4-methoxyphenylsulfonyl)piperidin-4-yl)-2H-indazole] | > 10 | 0.017
11 | NC(=O)c1ccc(S(=O)(=O)N2CCC(c3c4cc(C(c5ccc(Cl)cc5)c5ccc(Cl)cc5)ccc4nn3C3CC3)CC2)cc1Cl [Compound 153, 4-(4-(5-(bis(4-chlorophenyl)methyl)-2-cyclopropyl-2H-indazol-3-yl)piperidin-1-ylsulfonyl)-2-chlorobenzamide] | > 10 | 0.017
12 | CNC(=O)c1ccc(S(=O)(=O)N2CCC(c3c4cc(C(c5ccc(Cl)cc5)c5ccc(Cl)cc5)ccc4nn3C3CC3)CC2)cc1Cl [Compound 154, 4-(4-(5-(bis(4-chlorophenyl)methyl)-2-cyclopropyl-2H-indazol-3-yl)piperidin-1-ylsulfonyl)-2-chloro-N-methylbenzamide] | > 10 | 0.004
13 | CNC(=O)c1ccc(S(=O)(=O)N2CCC(c3c4cc(C(c5ccc(Cl)cc5)c5ccc(Cl)cc5)ccc4nn3C3CC3)CC2)cn1 [Compound 155, 5-(4-(5-(bis(4-chlorophenyl)methyl)-2-cyclopropyl-2H-indazol-3-yl)piperidin-1-ylsulfonyl)-N-methylpicolinamide] | > 10 | 0.006
14 | COc1ccccc1S(=O)(=O)N1CCC(c2c3cc(C(c4ccc(Cl)cc4)c4ccc(Cl)cc4)ccc3nn2C2CC2)CC1 [Compound 156, 5-(bis(4-chlorophenyl)methyl)-2-cyclopropyl-3-(1-(2-methoxyphenylsulfonyl)piperidin-4-yl)-2H-indazole] | > 10 | 0.001
15 | COc1ccc(S(=O)(=O)N2CCC(c3c4cc(C(c5ccc(Cl)cc5)c5ccc(Cl)cc5)ccc4nn3C3CC3)CC2)cc1C(N)=O [Compound 158, 5-(4-(5-(bis(4-chlorophenyl)methyl)-2-cyclopropyl-2H-indazol-3-yl)piperidin-1-ylsulfonyl)-2-methoxybenzamide] | > 10 | 0.003
16 | CNC(=O)c1cc(S(=O)(=O)N2CCC(c3c4cc(C(c5ccc(Cl)cc5)c5ccc(Cl)cc5)ccc4nn3C3CC3)CC2)ccc1OC [Compound 159, 5-(4-(5-(bis(4-chlorophenyl)methyl)-2-cyclopropyl-2H-indazol-3-yl)piperidin-1-ylsulfonyl)-2-methoxy-N-methylbenzamide] | > 10 | 0.003
17 | O=C(O)c1ccc(S(=O)(=O)N2CCC(c3c4cc(C(c5ccc(Cl)cc5)c5ccc(Cl)cc5)ccc4nn3C3CC3)CC2)cn1 [Compound 160, 5-(4-(5-(bis(4-chlorophenyl)methyl)-2-cyclopropyl-2H-indazol-3-yl)piperidin-1-ylsulfonyl)picolinic acid] | 4.4 | 0.005
18 | O=C(O)c1ccc(S(=O)(=O)N2CCC(c3c4cc(C(c5ccc(Cl)cc5)c5ccc(Cl)cc5)ccc4nn3C3CC3)CC2)cc1Cl [Compound 161, 4-(4-(5-(bis(4-chlorophenyl)methyl)-2-cyclopropyl-2H-indazol-3-yl)piperidin-1-ylsulfonyl)-2-chlorobenzoic acid] | 0.95 | 0.004
19 | O=C(O)c1cc(S(=O)(=O)N2CCC(c3c4cc(C(c5ccc(Cl)cc5)c5ccc(Cl)cc5)ccc4nn3C3CC3)CC2)ccc1F [Compound 162, 5-(4-(5-(bis(4-chlorophenyl)methyl)-2-cyclopropyl-2H-indazol-3-yl)piperidin-1-ylsulfonyl)-2-fluorobenzoic acid] | 5.2 | 0.004
20 | NC(=O)c1cc(S(=O)(=O)N2CCC(c3c4cc(C(c5ccc(Cl)cc5)c5ccc(Cl)cc5)ccc4nn3C3CC3)CC2)ccc1F [Compound 163, 5-(4-(5-(bis(4-chlorophenyl)methyl)-2-cyclopropyl-2H-indazol-3-yl)piperidin-1-ylsulfonyl)-2-fluorobenzamide] | > 10 | 0.012
21 | COc1ccc(S(=O)(=O)N2CCC(c3c4cc(C(c5ccc(Cl)cc5)c5ccc(Cl)cc5)ccc4nn3C3CC3)CC2)cc1C(=O)O [Compound 164, 5-(4-(5-(bis(4-chlorophenyl)methyl)-2-cyclopropyl-2H-indazol-3-yl)piperidin-1-ylsulfonyl)-2-methoxybenzoic acid] | > 10 | 0.026
22 | NC(=O)c1ccc(S(=O)(=O)N2CCC(c3c4cc(C(c5ccc(Cl)cc5)c5ccc(Cl)cc5)ccc4nn3C3CC3)CC2)cn1 [Compound 165, 5-(4-(5-(bis(4-chlorophenyl)methyl)-2-cyclopropyl-2H-indazol-3-yl)piperidin-1-ylsulfonyl)picolinamide] | > 10 | 0.013
23 | O=C(O)c1ccc(S(=O)(=O)N2CCC(c3c4cc(C(c5ccc(Cl)cc5)c5ccc(Cl)cc5)ccc4nn3C3CC3)CC2)cc1F [Compound 166, 4-(4-(5-(bis(4-chlorophenyl)methyl)-2-cyclopropyl-2H-indazol-3-yl)piperidin-1-ylsulfonyl)-2-fluorobenzoic acid] | 2.39 | 0.002
24 | NC(=O)c1ccc(S(=O)(=O)N2CCC(c3c4cc(C(c5ccc(Cl)cc5)c5ccc(Cl)cc5)ccc4nn3C3CC3)CC2)cc1F [Compound 167, 4-(4-(5-(bis(4-chlorophenyl)methyl)-2-cyclopropyl-2H-indazol-3-yl)piperidin-1-ylsulfonyl)-2-fluorobenzamide] | > 10 | 0.012
25 | O=C(O)c1cc(S(=O)(=O)N2CCC(c3c4cc(C(c5ccc(Cl)cc5)c5ccc(Cl)cc5)ccc4nn3C3CC3)CC2)ccc1Cl [Compound 168, 5-(4-(5-(bis(4-chlorophenyl)methyl)-2-cyclopropyl-2H-indazol-3-yl)piperidin-1-ylsulfonyl)-2-chlorobenzoic acid] | 7.04 | 0.002
26 | CNC(=O)c1cc(S(=O)(=O)N2CCC(c3c4cc(C(c5ccc(Cl)cc5)c5ccc(Cl)cc5)ccc4nn3C3CC3)CC2)ccc1Cl [Compound 170, 5-(4-(5-(bis(4-chlorophenyl)methyl)-2-cyclopropyl-2H-indazol-3-yl)piperidin-1-ylsulfonyl)-2-chloro-N-methylbenzamide] | > 10 | 0.009
27 | O=C(O)c1ccc(S(=O)(=O)N2CCC(c3c4cc(C(c5ccc(Cl)cc5)c5ccc(Cl)cc5)ccc4nn3C3CC3)CC2)o1 [Compound 171, 5-(4-(5-(bis(4-chlorophenyl)methyl)-2-cyclopropyl-2H-indazol-3-yl)piperidin-1-ylsulfonyl)furan-2-carboxylic acid] | > 10 | 0.003
28 | NC(=O)c1ccc(S(=O)(=O)N2CCC(c3c4cc(C(c5ccc(Cl)cc5)c5ccc(Cl)cc5)ccc4nn3C3CC3)CC2)o1 [Compound 172, 5-(4-(5-(bis(4-chlorophenyl)methyl)-2-cyclopropyl-2H-indazol-3-yl)piperidin-1-ylsulfonyl)furan-2-carboxamide] | > 10 | 0.003
29 | O=S(=O)(N1CCC(c2n[nH]c3ccc(C(c4ccc(Cl)cc4)c4ccc(Cl)cc4)cc23)CC1)C(F)(F)F [Compound 173] | 5.78 | 0.007
